Assay results from patent US6274715A, “Tricyclic erythromycin derivatives” (priority 1997, dated 2001).
Values after ≈ are worked out from the molar mass of the structure shown.

How the values were obtained:
Format in all cases: cell-based
[1] = test system: STAPHYLOCOCCUS AUREUS CMX 642A; test: In vitro antibacterial activity, MIC, BHI agar dilution; details: S. aureus CMX 642A, unit assumed
[2] = test system: ACINETOBACTER CALCOACETICUS CMX 669; test: as above; details: A. calcoaceticus CMX 669, unit assumed
[3] = test system: PSEUDOMONAS AERUGINOSA DPHD-2862; test: as above; details: P. aeruginosa DPHD-2862, unit assumed
M[…] ATCC 4698 = test: as above; details: M. luteus ATCC 4698, unit assumed
How it was run: (§1)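 MIC was read visually as the lowest drug level with no growth, a slight haze or sparsely isolated colonies relative to a compound-free growth control. Organisms were spotted at 1:100 dilution (1:10 for slow-growing strains) onto Brain Heart Infusion agar containing serial compound dilutions and incubated 20 to 24 hours at 35-37° C.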

STR[…] 508 = test: as above; details: S. agalactiae CMX 508, unit assumed
How it was run: as §1

EN[…] ATCC 8043 = test: as above; details: E. faecium ATCC 8043, unit assumed
How it was run: as §1

M[…] ATCC 9341 = test: as above; details: M. luteus ATCC 9341, unit assumed
How it was run: as §1

[4] = test system: STAPHYLOCOCCUS AUREUS CMX 553; test: as above; details: S. aureus CMX 553, unit assumed
[5] = test system: PSEUDOMONAS AERUGINOSA BMH10; test: as above; details: P. aeruginosa BMH10, unit assumed
[6] = test system: STREPTOCOCCUS BOVIS A-5169; test: as above; details: S. bovis A-5169, unit assumed
[7] = test system: STAPHYLOCOCCUS EPIDERMIDIS 3519; details: S. epidermidis 3519; BHI agar; unit assumed
[8] = test system: STAPHYLOCOCCUS AUREUS 1775; test: In vitro antibacterial activity, MIC, BHI agar dilution; details: S. aureus 1775, unit assumed
ESCHERICHIA COLI JUHL = details: E. coli JUHL; BHI agar; unit assumed
ESCHERICHIA COLI KNK 437 = details: E. coli KNK 437; BHI agar; unit assumed
[9] = test system: PSEUDOMONAS AERUGINOSA K799/61; test: In vitro antibacterial activity, MIC, BHI agar dilution; details: P. aeruginosa K799/61, unit assumed
[10] = test system: STAPHYLOCOCCUS AUREUS A-5278; test: as above; details: S. aureus A-5278, unit assumed
[11] = test system: PSEUDOMONAS AERUGINOSA 5007; test: as above; details: P. aeruginosa 5007, unit assumed
[12] = test system: STREPTOCOCCUS PYOGENES 930; test: as above; details: S. pyogenes 930, unit assumed
[13] = test system: ENTEROBACTER AEROGENES ATCC 13048; test: as above; details: E. aerogenes ATCC 13048, unit assumed
[14] = test system: STAPHYLOCOCCUS AUREUS NCTC10649M; test: as above; details: S. aureus NCTC10649M, unit assumed
[15] = test system: STAPHYLOCOCCUS AUREUS A5177; test: as above; details: S. aureus A5177, unit assumed
[16] = test system: PSEUDOMONAS AERUGINOSA K799/WT; test: as above; details: P. aeruginosa K799/WT, unit assumed
[17] = test system: STREPTOCOCCUS PYOGENES PIU 2548; test: as above; details: S. pyogenes PIU 2548, unit assumed
[18] = test system: STREPTOCOCCUS PYOGENES EES61; test: as above; details: S. pyogenes EES61, unit assumed
[19] = test system: PROVIDENCIA STUARTII CMX 640; details: P. stuartii CMX 640; BHI agar; unit assumed
ESCHERICHIA COLI H560 = test: In vitro antibacterial activity, MIC, BHI agar dilution; details: E. coli H560, unit assumed
[20] = test system: MYCOBACTERIUM SMEGMATIS ATCC 114; test: as above; details: M. smegmatis ATCC 114, unit assumed
[21] = test system: STAPHYLOCOCCUS AUREUS ATCC 6538P; test: as above; details: S. aureus ATCC 6538P, 35-37° C., 20 to 24 hours, unit assumed
CANDIDA ALBICANS CCH 442 = test: as above; details: C. albicans CCH 442, unit assumed
ESCHERICHIA COLI DC-2 = test: as above; details: E. coli DC-2, unit assumed
ESCHERICHIA COLI SS = test: as above; details: E. coli SS, unit assumed
PSEUDOMONAS CEPACIA 296I = test: as above; details: P. cepacia 296I, unit assumed
[22] = test system: KLEBSIELLA PNEUMONIAE ATCC 8045; test: as above; details: K. pneumoniae ATCC 8045, unit assumed
[23] = test system: PSEUDOMONAS AERUGINOSA DPHD-5263; test: as above; details: P. aeruginosa DPHD-5263, unit assumed

Structure (SMILES)	MIC [1] [µg/mL]	MIC [2] [µg/mL]	MIC [3] [µg/mL]	MIC (M[…] ATCC 4698) [µg/mL]	MIC (STR[…] 508) [µg/mL]	MIC (EN[…] ATCC 8043) [µg/mL]	MIC (M[…] ATCC 9341) [µg/mL]	MIC [4] [µg/mL]	MIC [5] [µg/mL]	MIC [6] [µg/mL]	MIC [7] [µg/mL]	MIC [8] [µg/mL]	MIC (ESCHERICHIA COLI JUHL) [µg/mL]	MIC (ESCHERICHIA COLI KNK 437) [µg/mL]	MIC [9] [µg/mL]	MIC [10] [µg/mL]	MIC [11] [µg/mL]	MIC [12] [µg/mL]	MIC [13] [µg/mL]	MIC [14] [µg/mL]	other results
CC[C@H]1OC(=O)[C@H](C)C(=O)[C@H](C)[C@@H](O[C@@H]2O[C@H](C)C[C@H](N(C)C)[C@H]2O)[C@](C)(OC)C[C@@H](C)C2=N[C@H](COCc3ccc(C(=O)OC)cc3)CN3C(=O)O[C@@]1(C)[C@H]3[C@H]2C [Example 84]	0.2 (≈ 0.245 µM)	> 100	> 100	0.39 (≈ 0.478 µM)	0.02 (≈ 0.0245 µM)	0.05 (≈ 0.0613 µM)	0.1 (≈ 0.123 µM)	0.2 (≈ 0.245 µM)	> 100	≤ 0.005	0.39 (≈ 0.478 µM)	> 100	> 100	> 100	3.1 (≈ 3.8 µM)	> 100	> 100	100 (≈ 123 µM)	> 100	0.2 (≈ 0.245 µM)	MIC [15]: 0.2 µg/mL (≈ 0.245 µM); MIC [16]: > 100 µg/mL; MIC [17]: 0.2 µg/mL (≈ 0.245 µM); MIC [18]: 0.02 µg/mL (≈ 0.0245 µM); MIC [19]: > 100 µg/mL; MIC (ESCHERICHIA COLI H560): > 100 µg/mL; MIC [20]: 0.78 µg/mL (≈ 0.956 µM); MIC [21]: 0.2 µg/mL (≈ 0.245 µM); MIC (CANDIDA ALBICANS CCH 442): > 100 µg/mL; MIC (ESCHERICHIA COLI DC-2): > 100 µg/mL; MIC (ESCHERICHIA COLI SS): 1.56 µg/mL (≈ 1.91 µM); MIC (PSEUDOMONAS CEPACIA 296I): > 100 µg/mL; MIC [22]: > 100 µg/mL; MIC [23]: > 100 µg/mL
CCC1OC(=O)C(C)C(=O)C(C)C(OC2OC(C)CC(N(C)C)C2O)C(C)(OC)CC(C)C2=NC(COCc3cc(OC)cc(OC)c3)CN3C(=O)OC1(C)C3C2C (stereo not drawn) [Example 100]	0.2 (≈ 0.244 µM)	100 (≈ 122 µM)	> 100	0.1 (≈ 0.122 µM)	0.01 (≈ 0.0122 µM)	0.01 (≈ 0.0122 µM)	< 0.005	0.1 (≈ 0.122 µM)	> 100	0.01 (≈ 0.0122 µM)	0.2 (≈ 0.244 µM)	> 100	> 100	> 100	1.56 (≈ 1.91 µM)	> 100	> 100	100 (≈ 122 µM)	> 100	0.05 (≈ 0.0611 µM)	MIC [15]: 0.1 µg/mL (≈ 0.122 µM); MIC [16]: > 100 µg/mL; MIC [17]: 0.2 µg/mL (≈ 0.244 µM); MIC [18]: 0.01 µg/mL (≈ 0.0122 µM); MIC [19]: > 100 µg/mL; MIC (ESCHERICHIA COLI H560): 50 µg/mL (≈ 61.1 µM); MIC [20]: 0.78 µg/mL (≈ 0.954 µM); MIC [21]: 0.1 µg/mL (≈ 0.122 µM); MIC (CANDIDA ALBICANS CCH 442): > 100 µg/mL; MIC (ESCHERICHIA COLI DC-2): > 100 µg/mL; MIC (ESCHERICHIA COLI SS): 1.56 µg/mL (≈ 1.91 µM); MIC (PSEUDOMONAS CEPACIA 296I): 100 µg/mL (≈ 122 µM); MIC [22]: > 100 µg/mL; MIC [23]: > 100 µg/mL
CC[C@H]1OC(=O)[C@H](C)C(=O)[C@H](C)[C@@H](O[C@@H]2O[C@H](C)C[C@H](N(C)C)[C@H]2O)[C@](C)(OC)C[C@@H](C)C2=N[C@H](COCc3ccnc4ccccc34)CN3C(=O)O[C@@]1(C)[C@H]3[C@H]2C [Example 85]	0.2 (≈ 0.247 µM)	100 (≈ 124 µM)	> 100	0.78 (≈ 0.964 µM)	0.02 (≈ 0.0247 µM)	0.02 (≈ 0.0247 µM)	0.02 (≈ 0.0247 µM)	0.2 (≈ 0.247 µM)	> 100	0.01 (≈ 0.0124 µM)	0.2 (≈ 0.247 µM)	> 100	> 100	> 100	3.1 (≈ 3.83 µM)	> 100	> 100	100 (≈ 124 µM)	> 100	0.39 (≈ 0.482 µM)	MIC [15]: 0.2 µg/mL (≈ 0.247 µM); MIC [16]: > 100 µg/mL; MIC [17]: 0.1 µg/mL (≈ 0.124 µM); MIC [18]: ≤ 0.005 µg/mL; MIC [19]: > 100 µg/mL; MIC (ESCHERICHIA COLI H560): > 100 µg/mL; MIC [20]: 3.1 µg/mL (≈ 3.83 µM); MIC [21]: 0.2 µg/mL (≈ 0.247 µM); MIC (CANDIDA ALBICANS CCH 442): > 100 µg/mL; MIC (ESCHERICHIA COLI DC-2): > 100 µg/mL; MIC (ESCHERICHIA COLI SS): 0.78 µg/mL (≈ 0.964 µM); MIC (PSEUDOMONAS CEPACIA 296I): 100 µg/mL (≈ 124 µM); MIC [22]: > 100 µg/mL; MIC [23]: > 100 µg/mL
